{"source": "paper PMC12737022", "about": "“Evaluations of Sex Differences in Dosimetry in Rats Following Perfluorohexanesulfonamide (PFHxSA) Oral Exposure” (Toxics, 2025)", "key": {"[1]": {"assay": "Liver dosimetry of PFHxSA and PFHxS by targeted LC/MS/MS", "type": "in vivo, rat", "conditions": "male, Sprague Dawley (Crl:CD(SD)), rat, liver, oral", "excerpt": "(§1) The plasma and liver samples for this investigation were provided by Mutlu et al.. The study design, including detailed descriptions of animal handling, procedures for dosing, clinical observations, termination, and collection of tissues, is reported elsewhere and is consistent with the ARRIVE guidelines. Briefly, male and female Sprague Dawley (SD) rats (Crl:CD(SD)) (n = 48/sex, 96 total) were purchased from Charles River Laboratory (Raleigh, NC, USA) and allowed to acclimate for ≥5 days before initial dosing. Rats were 8–10 weeks old at the time of exposure. PFHxSA dosing solutions in corn oil were prepared on Day 0 and used over the course of the study. Rats of both sexes (n = 5/sex, dose, and time point, plus eight vehicle controls per sex) were dosed by oral gavage (5 mL/kg body weight) once daily for five days. […] The formulation concentrations decreased from 100 mg/kg/day at half-log10 intervals until the lowest dose level, which was a full log10 interval below the next higher dose, giving eight dose levels (0.01 to 100 mg/kg/day or 0.025 µmol/kg/day to 250 µmol/kg/day) in addition to vehicle controls. Doses were administered in randomized order within ± 1 h on each day of dosing. […] Rats were euthanized 24 h after the last dose. Blood was collected via cardiac puncture with tripotassium ethylene diamine tetraacetic acid (K3EDTA) as an anti-coagulant and centrifuged to collect cell-free plasma. Liver was collected and flash-frozen in liquid nitrogen. Liver, plasma, and dosing formulation samples were frozen at the USEPA Center for Computational Toxicology and Exposure (CCTE), Durham, NC, USA. Tissue samples (plasma and liver, n = 96 each) were stored at ≤−70 °C prior to extraction; dosing formulation samples (n = 9) were stored at −20 °C.\n(§2) Detailed information on solvents and standards used for targeted LC/MS/MS of PFHxSA and PFHxS can be found in SI Text S1 and SI Table S1. Plasma and liver preparations were modified from Conley et al.. Briefly, aliquots of plasma (25 µL) and liver (~10 mg) were spiked with PFOSA as an internal standard, as no isotope-labeled PFHxSA was available. Sample batches included up to 96 samples along with an MB, CCV, and LCS for QC. Commercial plasma (mixed-sex SD rat plasma) and liver (mixed-sex SD rat) were obtained from BioIVT (Westbury, NY, USA). Cold acetonitrile (ACN) with 0.1 M formic acid was used to precipitate proteins. Liver and plasma samples were prepared similarly, except that the livers were homogenized after solvent addition. Plasma samples were vortexed to mix before being chilled at −20 °C, after which samples were centrifuged at 5 °C and 10,000× g. Liver samples were chilled at −80 °C, then homogenized using an Omni International (Kennesaw, GA, USA) Bead Ruptor 24. Liver homogenates were centrifuged at 26,000× g and 5 °C. Supernatants from the extraction of both matrices were removed and stored at −20 °C until analysis. Refer to SI Text S4 for additional experimental details and information on calibration and QC parameters for quantitation of PFHxSA.\n(§3) Targeted LC/MS/MS of PFHxSA was performed on a Sciex 4000 QTRAP LC/MS/MS system operated in negative ESI mode with MRM scanning. A Restek (Bellefonte, PA, USA) Raptor Polar X (100 mm × 2 mm, 2.7 µm) column was used for liquid chromatography. Isocratic elution occurred over 10 min with a 30:70 ratio of mobile phase A (10 mM ammonium formate): mobile phase B (60:40 ACN: methanol). Both mobile phases included 0.05% formic acid. The LOQs for PFHxSA were 0.100 µM in plasma and 0.351 µM in liver. Additional details of the instrument method parameters for targeted analysis of PFHxSA are provided in SI Table S5. The MRM transitions for the PFHxSA method are provided in SI Table S6. […]"}, "[2]": {"assay": "Plasma dosimetry of PFHxSA and PFHxS by targeted LC/MS/MS", "type": "in vivo, rat", "conditions": "for concentration at 24 h: Sprague Dawley (Crl:CD(SD)), rat, plasma, oral", "excerpt": "as §1, §2, §3"}}, "note": "Several values for one entry are separate records, joined by “and”; a condition that tells them apart may be missing. Identical values can stand only once.", "data": [{"smiles": "NS(=O)(=O)C(F)(F)C(F)(F)C(F)(F)C(F)(F)C(F)(F)C(F)(F)F", "note": "[PFHxSA, Perfluorohexanesulfonamide]", "values": [{"measurement": "concentration at 24 h", "setting": "[1]; 10 mg/kg/day, PFHxSA 10 mg/kg/day oral 5 days, male rats, mean ± SD, read-out: PFHxSA Male Liver Conc.", "value": "10.6 ± 2.5", "unit": "µM"}, {"measurement": "concentration at 24 h", "setting": "[1]; 10 mg/kg/day, PFHxSA 10 mg/kg/day oral 5 days, individual rats, read-out: PFHxSA Male Liver Conc. (wet weight)", "value": "3370 ng/g and 8.44 µM"}, {"measurement": "concentration at 24 h", "setting": "[1]; 30 mg/kg/day, PFHxSA 30 mg/kg/day oral 5 days, male rats, mean ± SD, read-out: PFHxSA Male Liver Conc.", "value": "11.6 ± 2.6", "unit": "µM"}, {"measurement": "concentration at 24 h", "setting": "[1]; 30 mg/kg/day, PFHxSA 30 mg/kg/day oral 5 days, individual rats, read-out: PFHxSA Male Liver Conc. (wet weight)", "value": "4320 ng/g and 10.8 µM"}, {"measurement": "Female PFHxSA plasma concentrations versus male plasma", "setting": "[2]; at 30 and 100 mg/kg/day", "value": "at least two-fold higher"}, {"measurement": "Female plasma PFHxSA levels higher than males, on average", "setting": "[2]; doses of 10 mg/kg/day and up", "value": 2.9, "unit": "fold"}, {"measurement": "concentration at 24 h", "setting": "[2]; female, 0.01 mg/kg/day, PFHxSA 0.01 mg/kg/day oral 5 days, female rats, mean ± SD, one sample estimated as half the LOQ, read-out: PFHxSA Female Plasma Conc.", "value": "0.117 ± 0.043", "unit": "µM"}, {"measurement": "concentration at 24 h", "setting": "[2]; female, 0.1 mg/kg/day, PFHxSA 0.1 mg/kg/day oral 5 days, female rats, mean ± SD, read-out: PFHxSA Female Plasma Conc.", "value": "1.1 ± 0.11", "unit": "µM"}, {"measurement": "concentration at 24 h", "setting": "[2]; female, 0.1 mg/kg/day, PFHxSA 0.1 mg/kg/day oral 5 days, female, individual rats, read-out: PFHxSA Female Plasma Conc.", "value": "1.03 µM and 410 ng/mL"}, {"measurement": "concentration at 24 h", "setting": "[2]; female, 0.3 mg/kg/day, PFHxSA 0.3 mg/kg/day oral 5 days, female rats, mean ± SD, read-out: PFHxSA Female Plasma Conc.", "value": "4.34 ± 1.6", "unit": "µM"}, {"measurement": "concentration at 24 h", "setting": "[2]; female, 1 mg/kg/day, PFHxSA 1 mg/kg/day oral 5 days, female rats, mean ± SD, read-out: PFHxSA Female Plasma Conc.", "value": "21.3 ± 9.1", "unit": "µM"}, {"measurement": "concentration at 24 h", "setting": "[2]; female, 3 mg/kg/day, PFHxSA 3 mg/kg/day oral 5 days, female rats, mean ± SD, read-out: PFHxSA Female Plasma Conc.", "value": "37.1 ± 13", "unit": "µM"}, {"measurement": "concentration at 24 h", "setting": "[2]; female, 10 mg/kg/day, PFHxSA 10 mg/kg/day oral 5 days, female rats, mean ± SD, read-out: PFHxSA Female Plasma Conc.", "value": "64.9 ± 17", "unit": "µM"}, {"measurement": "concentration at 24 h", "setting": "[2]; female, 10 mg/kg/day, PFHxSA 10 mg/kg/day oral 5 days, female, individual rats, read-out: PFHxSA Female Plasma Conc.", "value": "19600 ng/mL and 49 µM"}, {"measurement": "concentration at 24 h", "setting": "[2]; female, 30 mg/kg/day, PFHxSA 30 mg/kg/day oral 5 days, female rats, mean ± SD, read-out: PFHxSA Female Plasma Conc.", "value": "179 ± 66", "unit": "µM"}, {"measurement": "concentration at 24 h", "setting": "[2]; female, 100 mg/kg/day, PFHxSA 100 mg/kg/day oral 5 days, female, individual rats, read-out: PFHxSA Female Plasma Conc.", "value": "111000 ng/mL and 278 µM"}, {"measurement": "concentration at 24 h", "setting": "[2]; male, 0.01 mg/kg/day, PFHxSA 0.01 mg/kg/day oral 5 days, male rats, single rat above the LOQ, read-out: PFHxSA Male Plasma Conc.", "value": 0.102, "unit": "µM"}, {"measurement": "concentration at 24 h", "setting": "[2]; male, 0.01 mg/kg/day, PFHxSA 0.01 mg/kg/day oral 5 days, male, individual rats, read-out: PFHxSA Male Plasma Conc.", "value": "40.6 ng/mL and 102 nM"}, {"measurement": "concentration at 24 h", "setting": "[2]; male, 0.1 mg/kg/day, PFHxSA 0.1 mg/kg/day oral 5 days, male rats, mean ± SD, read-out: PFHxSA Male Plasma Conc.", "value": "0.796 ± 0.28", "unit": "µM"}, {"measurement": "concentration at 24 h", "setting": "[2]; male, 0.3 mg/kg/day, PFHxSA 0.3 mg/kg/day oral 5 days, male rats, mean ± SD, read-out: PFHxSA Male Plasma Conc.", "value": "4.26 ± 0.48", "unit": "µM"}, {"measurement": "concentration at 24 h", "setting": "[2]; male, 0.3 mg/kg/day, PFHxSA 0.3 mg/kg/day oral 5 days, male, individual rats, read-out: PFHxSA Male Plasma Conc.", "value": "1640 ng/mL and 3.49 µM"}, {"measurement": "concentration at 24 h", "setting": "[2]; male, 1 mg/kg/day, PFHxSA 1 mg/kg/day oral 5 days, male rats, mean ± SD, read-out: PFHxSA Male Plasma Conc.", "value": "11.4 ± 2.2", "unit": "µM"}, {"measurement": "concentration at 24 h", "setting": "[2]; male, 1 mg/kg/day, PFHxSA 1 mg/kg/day oral 5 days, male, individual rats, read-out: PFHxSA Male Plasma Conc.", "value": "4950 ng/mL and 12.4 µM"}, {"measurement": "concentration at 24 h", "setting": "[2]; male, 3 mg/kg/day, PFHxSA 3 mg/kg/day oral 5 days, male rats, mean ± SD, read-out: PFHxSA Male Plasma Conc.", "value": "27.1 ± 8", "unit": "µM"}, {"measurement": "concentration at 24 h", "setting": "[2]; male, 3 mg/kg/day, PFHxSA 3 mg/kg/day oral 5 days, male, individual rats, read-out: PFHxSA Male Plasma Conc.", "value": "9190 ng/mL and 23 µM"}, {"measurement": "concentration at 24 h", "setting": "[2]; male, 10 mg/kg/day, PFHxSA 10 mg/kg/day oral 5 days, male rats, mean ± SD, read-out: PFHxSA Male Plasma Conc.", "value": "56.8 ± 14", "unit": "µM"}, {"measurement": "concentration at 24 h", "setting": "[2]; male, 10 mg/kg/day, PFHxSA 10 mg/kg/day oral 5 days, male, individual rats, read-out: PFHxSA Male Plasma Conc.", "value": "17700 ng/mL and 44.3 µM"}, {"measurement": "concentration at 24 h", "setting": "[2]; male, 30 mg/kg/day, PFHxSA 30 mg/kg/day oral 5 days, male rats, mean ± SD, read-out: PFHxSA Male Plasma Conc.", "value": 81.2, "unit": "µM"}, {"measurement": "concentration at 24 h", "setting": "[2]; male, 30 mg/kg/day, PFHxSA 30 mg/kg/day oral 5 days, male, individual rats, read-out: PFHxSA Male Plasma Conc.", "value": "27700 ng/mL and 69.4 µM"}, {"measurement": "concentration at 24 h", "setting": "[2]; male, 100 mg/kg/day, PFHxSA 100 mg/kg/day oral 5 days, male rats, average, read-out: PFHxSA Male Plasma Conc.", "value": 62.1, "unit": "µM"}, {"measurement": "concentration at 24 h", "setting": "[2]; male, 100 mg/kg/day, PFHxSA 100 mg/kg/day oral 5 days, male, individual rats, read-out: PFHxSA Male Plasma Conc.", "value": "29500 ng/mL and 74 µM"}]}]}
